# Read-outs that look alike come from different tables or passages of the source.
# How the values were obtained:
# [1] = system: mTORC1 and mTORC2 biomarkers; assay: Target biomarker inhibition at 15 mg dose level (predicted, not tested); type: in vivo, human; conditions: 15 mg dose level
# p4E-BP1 (mTORC1) = assay: Stimulated blood biomarker assay in monocytes (CD14+) for p4E-BP1 (mTORC1 inhibition); type: in vivo, human
# Experimental: (§1) Central laboratories conducted serial stimulated blood biomarker assays in monocytes (CD14+) for p4E-BP1 and pPKB (also known as pAKT) for assessment of mTORC1 and mTORC2 inhibition, respectively. Monthly changes from baseline for chromogranin A (CgA), and for other serum hormones if elevated, were assayed locally.
# [2] = 28-day GLP toxicology study, rat; type: in vivo
# Experimental: (§2) A dose of 7.5 mg/day is proposed as the starting dose in this protocol. This dose is based on the recommendations in the March 2010 FDA Guidance for Industry entitled, “S9 Nonclinical Evaluation for Anticancer Pharmaceuticals,” where a start dose for first administration in humans should be either one-tenth the STD10 in rodents, or one-sixth of the HNSTD if the nonrodent is the most appropriate species. The conversion factors from the July 2005 FDA Guidance for Industry entitled, “Estimating the Maximum Safe Starting Dose in Initial Clinical Trials for Therapeutics in Adult Healthy Volunteers,” were used to convert the animal dose to the HED. The dose was converted to milligrams based on a 60-kg human body weight.
# (§3) Species Animal Dose HED (mg/kg) HED (mg) Safety Factor Start Dose (mg) […]
# (§4) Since the dog was identified as the most sensitive species in the 28-day GLP toxicology studies, the start dose for the study would be 8.2 mg/day. Based on available dosage strengths of the IP, a dose of 7.5 mg/day of CC-223 is deemed to be an acceptable starting dose for this initial trial in […]
# (§5) Part B will consist of approximately 230 patients with selected tumor types to further assess the safety profile and provide preliminary efficacy information. […]
# [3] = system: well-differentiated NET of non-pancreatic gastrointestinal or unknown origin; assay: FDG PET SUV change from baseline to day 15 of cycle 1; type: in vivo, human
# Experimental: Metabolic changes were assessed by percent change in total of standardized uptake value (SUV) of 2-^18F-fluoro-2-deoxyglucose (FDG) with PET scanning from baseline to day 15 in cycle 1. Carcinoid symptoms of flushing and diarrhea were documented monthly with a non-validated symptom questionnaire that was completed at each study visit. Patients reported whether they had experienced specific events, and the severity and/or frequency of these events. Symptom improvement was defined as ≥50% reduction in frequency and/or a 1-grade reduction in severity for each from baseline.
# [4] = Dog; trial protocol; cited from earlier work
# [5] = Plasma pharmacokinetics of CC-223 and metabolite M1 in patients with NET; type: in vivo, human; conditions: for CL/F / AUC / AUC(0-t) / Cmax / Vd/F: geometric mean (%CV, n); for Tmax / AUC / AUC(0-t) / Cmax / Vd/F: human, plasma; for Vd/F: read-out: Vz/F
# Experimental: Blood for PK analysis was drawn on day 1 pre-dose and for up to 48 hours post-dose, and then on day 15 up to 8 hours post-dose. Urine on day 1 was collected within 30 minutes prior to dosing and at intervals up to 24 hours post-dose. Samples were assayed for CC-223 and the principal active metabolite (M1) using validated chiral liquid chromatography mass spectrometry. CC-223 PK parameters were calculated using dosing and sample collection times. Non-compartmental PK analysis was performed used WinNonlin Enterprise version 5.2 Model 200 and Model 210 (Certara, Princeton, NJ).
# pAKT (mTORC2) = assay: Stimulated blood biomarker assay in monocytes (CD14+) for pAKT (mTORC2 inhibition); type: in vivo, human; conditions: for pAKT median inhibition from baseline: 30 mg; for Blood pAKT median inhibition: 45 mg
# Experimental: as §1
# [6] = 28-day GLP toxicology study, dog; type: in vivo
# Experimental: as §2, §3, §4, §5
# [7] = set-up: method as in doi:10.1200/jco.2013.31.15_suppl.2606; conditions: non-small cell lung cancer and hepatocellular carcinoma cohorts dosed at 45 mg; cited from earlier work
# [8] = set-up: method as in PMID 26177599; conditions: patients with advanced solid tumors; oral once daily; cited from earlier work
# [9] = across both dose level cohorts (45 mg or 30 mg), 1.5 hours after multiple dosing on day 15
# [10] = po, 30 mg/day, CC-223 30 mg/day oral, Day 1
# [11] = po, 30 mg/day, CC-223 30 mg/day oral, Day 15, n = 1
# [12] = po, 45 mg/day, CC-223 45 mg/day oral, Day 1
structure (smiles),measurement,setting,value
CO[C@H]1CC[C@H](N2C(=O)CNc3ncc(-c4ccc(C(C)(C)O)nc4)nc32)CC1 [CC-223],Target biomarker inhibition,[1],modest
same,p4E-BP1 median inhibition,"p4E-BP1 (mTORC1); 30 mg, after multiple doses",26%
same,p4E-BP1 median inhibition,"p4E-BP1 (mTORC1); 30 mg, following a single dose",9%
same,p4E-BP1 median inhibition,"p4E-BP1 (mTORC1); 45 mg, 1.5 hours after a single dose",37%
same,p4E-BP1 median inhibition,"p4E-BP1 (mTORC1); 45 mg, after multiple doses",47%
same,p4E-BP1 median biomarker inhibition relative to baseline,p4E-BP1 (mTORC1); [9],> 26%
same,HED (human equivalent dose) of STD10,[2]; 60-kg human body weight,96 mg
same,HED (human equivalent dose) of STD10,[2]; FDA conversion factors,1.6 mg/kg
same,Patients with at least a 25% reduction in SUV,[3]; 18 patients,38.3%
same,Patients with at least a 15% reduction in FDG uptake,[3]; 21 patients,44.7%
same,Mean percent decrease from baseline to day 15 in [18F]-FDG PET SUV,"[3]; 31 patients, standard deviation 35.2%, P<0.0001",32.0%
same,HNSTD (highest non-severely toxic dose),[4],1.5 mg/kg
same,CL/F,"[5]; CC-223 30 mg/day oral, Day 1","34.0 (34.2, n = 3) L/h"
same,CL/F,"[5]; CC-223 45 mg/day oral, Day 1","19.8 (20.1, n = 2) L/h"
same,Tmax,"[5]; oral, regardless of starting dose, read-out: Median Tmax",1.5 to 3 h
same,AUC,[5]; [10],819 ng·h/mL
same,AUC(0-t),[5]; [10],840 ng·h/mL
same,Cmax,[5]; [10],133 ng/mL
same,AUC,[5]; [11],776 ng·h/mL
same,AUC(0-t),[5]; [11],776 ng·h/mL
same,Cmax,[5]; [11],154 ng/mL
same,Tmax,"[5]; po, 30 mg/day, median (min, max, n), CC-223 30 mg/day oral, Day 1, read-out: Tmax",1.7 h
same,Tmax,"[5]; po, 30 mg/day, median (min, max, n), CC-223 30 mg/day oral, Day 15, read-out: Tmax",1.5 h
same,AUC(0-t),[5]; [12],1800 ng·h/mL
same,Cmax,[5]; [12],347 ng/mL
same,AUC,"[5]; po, 45 mg/day, CC-223 45 mg/day oral, Day 1, n = 1",1940 ng·h/mL
same,Tmax,"[5]; po, 45 mg/day, median (min, max, n), CC-223 45 mg/day oral, Day 1, read-out: Tmax",1.52 h
same,Vd/F,"[5]; CC-223 30 mg/day oral, Day 1",290 L
same,Vd/F,"[5]; CC-223 45 mg/day oral, Day 1",125 L
same,pAKT median inhibition from baseline,pAKT (mTORC2); after the first dose,59%
same,pAKT median inhibition from baseline,pAKT (mTORC2); day 15 after multiple doses,79%
same,Blood pAKT median inhibition,pAKT (mTORC2); 1.5 hours after a single dose (day 1),83%
same,Blood pAKT median inhibition,pAKT (mTORC2); after multiple doses (day 15),76%
same,pAKT median biomarker inhibition relative to baseline,pAKT (mTORC2); [9],> 70%
same,HED (human equivalent dose) of HNSTD,[6]; 60-kg human body weight,49 mg
same,HED (human equivalent dose) of HNSTD,[6]; FDA conversion factors,0.81 mg/kg
same,Patients with dose reductions,[7],> 50%
same,Maximum tolerated dose (MTD),[8],45 mg/day

# Reference: PMC6748410, “A phase 2 study of an oral mTORC1/mTORC2 kinase inhibitor (CC-223) for non-pancreatic neuroendocrine tumors with or without carcinoid symptoms” (PLoS ONE, 2019)
